Experimental data from PubChem BioAssay AID272 (DTP/NCI, 2004).
Where “and” joins values, the source holds several entries; their conditions need not be identical. Identical values can stand only once. Records with an inconclusive call do not appear.

System: Lewis lung carcinoma i.m., BDF1 mice, T/C %
Experiment: NCI In Vivo Anticancer Drug Screen. Data for tumor model Lewis Lung Carcinoma (intramuscular) in B6D2F1 (BDF1) mice
Method in brief: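 Antitumour activity is assessed in transplanted-tumour mice. Endpoint is survival or tumour size, normalised to vehicle-dosed controls (T/C).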

[1] = endpoint: median survival time, dose: 12.5 mg/kg/injection, schedule: Q01DX011 (ip), vehicle: saline, higher = longer survival
[2] = endpoint: median survival time, dose: 25.0 mg/kg/injection, schedule: Q01DX011 (ip), vehicle: saline, higher = longer survival

O=C1CCCN1.O=C1CCCN1.[Br][Co][Br]
T/C (endpoint: mean tumor weight, dose: 37.5 mg/kg/injection, schedule: Q01DX011 (ip), vehicle: water, higher = larger tumour): 84 % of control | T/C (endpoint: mean tumor weight, dose: 75.0 mg/kg/injection, schedule: Q01DX011 (ip), vehicle: water, higher = larger tumour): 65 % of control | T/C (endpoint: median survival time, dose: 37.5 mg/kg/injection, schedule: Q01DX011 (ip), vehicle: water, higher = longer survival): 95 % of control | T/C (endpoint: median survival time, dose: 75.0 mg/kg/injection, schedule: Q01DX011 (ip), vehicle: water, higher = longer survival): 110 % of control

Cc1cc[n+](CCc2ccccc2)cc1
T/C (endpoint: mean tumor weight (est.), dose: 12.5 mg/kg/injection, schedule: Q01DX011 (ip), vehicle: saline, higher = larger tumour): 76 % of control | T/C (endpoint: mean tumor weight (est.), dose: 25.0 mg/kg/injection, schedule: Q01DX011 (ip), vehicle: saline, higher = larger tumour): 95 % of control | T/C (endpoint: mean tumor weight (est.), dose: 50.0 mg/kg/injection, schedule: Q01DX011 (ip), vehicle: saline, higher = larger tumour): 75 % of control | T/C [1]: 94 % of control | T/C [2]: 102 % of control | T/C (endpoint: median survival time, dose: 50.0 mg/kg/injection, schedule: Q01DX011 (ip), vehicle: saline, higher = longer survival): 106 % of control

COc1cc([C@@H]2c3cc4c(cc3[C@@H](OC3OC5CO[C@@H](c6cccs6)OC5C(O)C3O)[C@H]3COC(=O)[C@H]23)OCO4)cc(OC)c1O (stereo partly specified)
T/C (endpoint: mean tumor weight (est.), dose: 0.25 mg/kg/injection, schedule: Q01DX011 (ip), vehicle: saline, higher = larger tumour): 98 % of control | T/C (endpoint: mean tumor weight (est.), dose: 0.5 mg/kg/injection, schedule: Q01DX011 (ip), vehicle: saline, higher = larger tumour): 74 % of control | T/C (endpoint: mean tumor weight (est.), dose: 1.0 mg/kg/injection, schedule: Q01DX011 (ip), vehicle: saline, higher = larger tumour): 68 % of control | T/C (endpoint: mean tumor weight (est.), dose: 2.0 mg/kg/injection, schedule: Q01DX011 (ip), vehicle: saline, higher = larger tumour): 45 % of control | T/C (endpoint: median survival time, dose: 0.25 mg/kg/injection, schedule: Q01DX011 (ip), vehicle: saline, higher = longer survival): 118 % of control | T/C (endpoint: median survival time, dose: 0.5 mg/kg/injection, schedule: Q01DX011 (ip), vehicle: saline, higher = longer survival): 104 % of control | T/C (endpoint: median survival time, dose: 1.0 mg/kg/injection, schedule: Q01DX011 (ip), vehicle: saline, higher = longer survival): 106 % of control | T/C (endpoint: median survival time, dose: 2.0 mg/kg/injection, schedule: Q01DX011 (ip), vehicle: saline, higher = longer survival): 114 % of control | T/C (endpoint: median survival time, dose: 2.0 mg/kg/injection, schedule: Q04DX003 (ip), vehicle: saline, higher = longer survival): 104 % of control | T/C (endpoint: median survival time, dose: 4.0 mg/kg/injection, schedule: Q04DX003 (ip), vehicle: saline, higher = longer survival): 105 % of control | T/C (endpoint: median survival time, dose: 8.0 mg/kg/injection, schedule: Q04DX003 (ip), vehicle: saline, higher = longer survival): 115 % of control | T/C (endpoint: median survival time, dose: 32.0 mg/kg/injection, schedule: Q04DX003 (ip), vehicle: saline, higher = longer survival): 37 % of control

O=c1[nH]c(=O)n(C2CC(O)C(CO)O2)cc1F (stereo unspecified)
T/C (endpoint: mean tumor weight, dose: 10.0 mg/kg/injection, schedule: Q01DX009 (ip), vehicle: saline, higher = larger tumour): 59 % of control | T/C (endpoint: mean tumor weight, dose: 10.0 mg/kg/injection, schedule: Q01DX011 (ip), vehicle: other, higher = larger tumour): 83 % of control | T/C (endpoint: mean tumor weight, dose: 20.0 mg/kg/injection, schedule: Q01DX009 (ip), vehicle: saline, higher = larger tumour): 72 % of control | T/C (endpoint: mean tumor weight, dose: 20.0 mg/kg/injection, schedule: Q01DX011 (ip), vehicle: other, higher = larger tumour): 29 % of control | T/C (endpoint: mean tumor weight, dose: 20.0 mg/kg/injection, schedule: Q01DX011 (ip), vehicle: saline, higher = larger tumour): 31 % of control and 42 % of control | T/C (endpoint: mean tumor weight, dose: 25.0 mg/kg/injection, schedule: Q01DX011 (ip), vehicle: saline, higher = larger tumour): 58 % of control | T/C (endpoint: mean tumor weight, dose: 40.0 mg/kg/injection, schedule: Q01DX009 (ip), vehicle: saline, higher = larger tumour): 65 % of control | T/C (endpoint: mean tumor weight, dose: 40.0 mg/kg/injection, schedule: Q01DX011 (ip), vehicle: saline, higher = larger tumour): 10 % of control and 17 % of control | T/C (endpoint: mean tumor weight, dose: 50.0 mg/kg/injection, schedule: Q01DX011 (ip), vehicle: saline, higher = larger tumour): 18 % of control | T/C (endpoint: mean tumor weight, dose: 80.0 mg/kg/injection, schedule: Q01DX009 (ip), vehicle: saline, higher = larger tumour): 16 % of control | T/C (endpoint: mean tumor weight, dose: 80.0 mg/kg/injection, schedule: Q01DX011 (ip), vehicle: other, higher = larger tumour): 4 % of control | T/C (endpoint: mean tumor weight, dose: 80.0 mg/kg/injection, schedule: Q01DX011 (ip), vehicle: saline, higher = larger tumour): 7 % of control | T/C (endpoint: mean tumor weight, dose: 100.0 mg/kg/injection, schedule: Q01DX011 (ip), vehicle: saline, higher = larger tumour): 3 % of control | T/C (endpoint: median survival time, dose: 10.0 mg/kg/injection, schedule: Q01DX011 (ip), vehicle: other, higher = longer survival): 98 % of control | T/C (endpoint: median survival time, dose: 10.0 mg/kg/injection, schedule: Q01DX011 (ip), vehicle: saline, higher = longer survival): 107 % of control and 120 % of control | T/C (endpoint: median survival time, dose: 19.0 mg/kg/injection, schedule: Q01DX007 (sc), vehicle: saline, higher = longer survival): 100 % of control | T/C (endpoint: median survival time, dose: 20.0 mg/kg/injection, schedule: Q01DX011 (ip), vehicle: other, higher = longer survival): 108 % of control | T/C (endpoint: median survival time, dose: 20.0 mg/kg/injection, schedule: Q01DX011 (ip), vehicle: saline, higher = longer survival): 91 % of control and 112 % of control and 123 % of control | T/C (endpoint: median survival time, dose: 20.0 mg/kg/injection, schedule: Q01DX011 (ip), vehicle: water, higher = longer survival): 105 % of control | T/C [2]: 108 % of control | T/C (endpoint: median survival time, dose: 31.0 mg/kg/injection, schedule: Q01DX007 (sc), vehicle: saline, higher = longer survival): 121 % of control | T/C (endpoint: median survival time, dose: 40.0 mg/kg/injection, schedule: Q01DX009 (ip), vehicle: saline, higher = longer survival): 114 % of control and 115 % of control | T/C (endpoint: median survival time, dose: 40.0 mg/kg/injection, schedule: Q01DX011 (ip), vehicle: saline, higher = longer survival): 97 % of control and 100 % of control | T/C (endpoint: median survival time, dose: 40.0 mg/kg/injection, schedule: Q01DX011 (ip), vehicle: water, higher = longer survival): 113 % of control | T/C (endpoint: median survival time, dose: 50.0 mg/kg/injection, schedule: Q01DX009 (ip), vehicle: saline, higher = longer survival): 101 % of control | T/C (endpoint: median survival time, dose: 80.0 mg/kg/injection, schedule: Q01DX009 (ip), vehicle: saline, higher = longer survival): 124 % of control | T/C (endpoint: median survival time, dose: 80.0 mg/kg/injection, schedule: Q01DX011 (ip), vehicle: saline, higher = longer survival): 153 % of control | T/C (endpoint: median survival time, dose: 80.0 mg/kg/injection, schedule: Q01DX011 (ip), vehicle: water, higher = longer survival): 121 % of control | T/C (endpoint: median survival time, dose: 86.0 mg/kg/injection, schedule: Q01DX007 (sc), vehicle: saline, higher = longer survival): 121 % of control

Cc1ccc2c(C)c3c(ccc4ccccc43)c[n+]2c1
T/C (endpoint: mean tumor weight (est.), dose: 1.25 mg/kg/injection, schedule: Q01DX011 (ip), vehicle: saline, higher = larger tumour): 87 % of control | T/C (endpoint: mean tumor weight (est.), dose: 2.5 mg/kg/injection, schedule: Q01DX011 (ip), vehicle: saline, higher = larger tumour): 96 % of control | T/C (endpoint: mean tumor weight (est.), dose: 5.0 mg/kg/injection, schedule: Q01DX011 (ip), vehicle: saline, higher = larger tumour): 72 % of control | T/C (endpoint: median survival time, dose: 1.25 mg/kg/injection, schedule: Q01DX011 (ip), vehicle: saline, higher = longer survival): 106 % of control | T/C (endpoint: median survival time, dose: 2.5 mg/kg/injection, schedule: Q01DX011 (ip), vehicle: saline, higher = longer survival): 110 % of control | T/C (endpoint: median survival time, dose: 5.0 mg/kg/injection, schedule: Q01DX011 (ip), vehicle: saline, higher = longer survival): 100 % of control

CCCCCCC(=O)O[C@H]1CC[C@H]2[C@@H]3CCC4=CC(=O)CC[C@]4(C)[C@H]3CC[C@]12C
T/C (endpoint: median survival time, dose: 20.0 mg/kg/injection, schedule: Q01DX009 (ip), vehicle: Klucel (hydroxypropylcellulose) (HPC), higher = longer survival): 94 % of control | T/C (endpoint: median survival time, dose: 40.0 mg/kg/injection, schedule: Q01DX009 (ip), vehicle: Klucel (hydroxypropylcellulose) (HPC), higher = longer survival): 90 % of control | T/C (endpoint: median survival time, dose: 80.0 mg/kg/injection, schedule: Q01DX009 (ip), vehicle: Klucel (hydroxypropylcellulose) (HPC), higher = longer survival): 91 % of control | T/C (endpoint: median survival time, dose: 160.0 mg/kg/injection, schedule: Q01DX009 (ip), vehicle: Klucel (hydroxypropylcellulose) (HPC), higher = longer survival): 110 % of control

CCCCC/C(C)=N\Nc1ccccn1
T/C (endpoint: mean tumor weight (est.), dose: 12.5 mg/kg/injection, schedule: Q01DX011 (ip), vehicle: saline with Tween-80, higher = larger tumour): 91 % of control | T/C (endpoint: mean tumor weight (est.), dose: 25.0 mg/kg/injection, schedule: Q01DX011 (ip), vehicle: saline with Tween-80, higher = larger tumour): 88 % of control | T/C (endpoint: mean tumor weight (est.), dose: 50.0 mg/kg/injection, schedule: Q01DX011 (ip), vehicle: saline with Tween-80, higher = larger tumour): 80 % of control | T/C (endpoint: median survival time, dose: 25.0 mg/kg/injection, schedule: Q01DX011 (ip), vehicle: saline with Tween-80, higher = longer survival): 98 % of control | T/C (endpoint: median survival time, dose: 50.0 mg/kg/injection, schedule: Q01DX011 (ip), vehicle: saline with Tween-80, higher = longer survival): 98 % of control

NC(C(=O)O)C(F)C(=O)O (stereo unspecified)
T/C (endpoint: median survival time, dose: 3.12 mg/kg/injection, schedule: Q01DX011 (ip), vehicle: saline, higher = longer survival): 104 % of control | T/C (endpoint: median survival time, dose: 6.25 mg/kg/injection, schedule: Q01DX011 (ip), vehicle: saline, higher = longer survival): 98 % of control | T/C [1]: 103 % of control

Clc1ccc(C(c2ccccc2Cl)C(Cl)Cl)cc1 (stereo unspecified)
T/C (endpoint: median survival time, dose: 50.0 mg/kg/injection, schedule: Q01DX011 (ip), vehicle: Klucel (hydroxypropylcellulose) (HPC), higher = longer survival): 88 % of control | T/C (endpoint: median survival time, dose: 100.0 mg/kg/injection, schedule: Q01DX011 (ip), vehicle: Klucel (hydroxypropylcellulose) (HPC), higher = longer survival): 95 % of control
